# Where a SMILES comes first, the peptide text is derived from it. Where no end group is shown, it is not given here. [ ]: non-standard residue; d: D form. 2Nal = N[C@@H](Cc1ccc2ccccc2c1)C(=O)O
# Assays:
# [1] = test system: Pseudomonas aeruginosa (PA); assay: Broth microdilution anti-bacterial assay (CLSI), Pseudomonas aeruginosa; format: cell-based, Pseudomonas aeruginosa (ATCC 14213); settings: PA; for MIC: overnight, 37° C., ≥99% inhibition; for MBC: ≥99% killing
# Protocol: (§1) To evaluate their anti-bacterial potency, broth microdilution method as per the CLSI guidelines 1 was used. […] The anti-bacterial potency of the tested agents is quantified using minimum inhibitory concentration (MIC) and minimum bactericidal concentration (MBC). […] To obtain the MBC data, 1X, 2X and 4× MIC of the peptide variants were plated to obtain the number of viable colonies compared to the original inoculum.
# (§2) Pseudomonas aeruginosa (ATCC 14213, PA), and methicillin resistant Staphylococcus aureus (BAA1717-USA 300, SA) were obtained from The American Type Culture Collection (ATCC).
# (§3) Examination of the potency of modified short peptides against PA and SA strains was performed by using the broth microdilution protocol from the Clinical and Laboratory Standards Institute (CLSI) guidelines (CLSI 2012) as described. Briefly, five freshly plated bacteria colonies were grown in cation adjusted MH2 broth (BD Biosciences) in a shaker incubator at 37° C., 220 RPM. Cells were grown to an optical density (OD600) of ~0.2 measured using a Microplate Spectrophotometer (Molecular Devices Spectra Max Plus). 100 μL of microbial culture containing ~5×10^5 CFU/mL of bacteria in the respective broths were introduced into each well containing 100 μL of peptides and incubated overnight at 37° C. Next, to check the bactericidal effects, 100 μL from each well was transferred and spread on sterile MH2 agar plates. The plates were incubated overnight at 37° C. and the number of colonies forming units (CFU) were calculated the following day. Readings of bacteria grown in media without any treatments were normalized to 100% as media control. For the mixed infection study, three freshly plated bacteria colonies each from PA, SA and ST plates were grown together in cation adjusted MH2 broth and proceeded as described above.
# [2] = test system: Staphylococcus aureus (SA); assay: Broth microdilution anti-bacterial assay (CLSI), Staphylococcus aureus; format: cell-based; settings: SA; for MIC: overnight, 37° C., ≥99% inhibition; for MBC: ≥99% killing
# Protocol: as §1, §2, §3
# [3] = test system: Pseudomonas aeruginosa (PA); assay: Combination of peptide with antibiotics against PA; format: cell-based; settings: with colistin
# From the text: In view of the results above, the peptide variants as described herein show synergistic anti-bacterial effects when used in combination with antibiotics.
# In some examples, the methods described herein further comprises administering an antibiotic agent to the subject.
# bacteria = assay: Comparison of wild-type peptide E1A to V8LQ19L (Table 14)
# From the text: Active peptide sequences based on ENO3 exerting significant bactericidal antibiofilm properties, and relevant to chronic wound healing are previously disclosed. The previously disclosed antimicrobial peptides (AMPs) are longer (>22-residues) in length, which would be more costly in production.
Molecule,MIC [1] [µM],MBC [1] [µM],MIC [2] [µM],MBC [2] [µM],MBC in combination with colistin [3],MIC in combination with colistin [3],Cationicity (bacteria),Mechanism of killing bacteria (bacteria),"Killing efficacy (in words) (bacteria; >99% inhibition or killing, even at 500 μM)"
CC(C)C[C@@H](NC(=O)[C@@H](C)NC(=O)[C@@H](CC(C)C)NC(=O)[C@@H](CCCCN)NC(=O)[C@@H](CC(C)C)NC(=O)[C@@H](C)NC(=O)[C@@H](CCCCN)NC(=O)[C@@H](CCCCN)NC(=O)[C@@H](CO)NC(=O)[C@@H](CC(C)C)NC(=O)[C@@H](CCCCN)NC(=O)[C@@H](CC(C)C)NC(=O)[C@@H](Cc1c[nH]c2ccccc12)NC(=O)[C@@H](CCCCN)NC(=O)[C@@H](CCCCN)NC(=O)[C@@H](CC(C)C)NC(=O)[C@@H](CC(C)C)NC(=O)[C@@H](CCCCN)NC(=O)[C@H](N)CCCCN)C(N)=O [E1AM2 D-V8L Q19L C-2-NH2] (H-[dK][dK][dL][dL][dK][dK][dW][dL][dK][dL][dS][dK][dK][dA][dL][dK][dL][dA][dL]-NH2),1.56,1.56,1.56,1.56,reduced minimum bactericidal concentration (MBC),reduced minimum inhibitory concentration (MIC),–,–,–
CC(C)C[C@H](NC(=O)[C@H](C)NC(=O)[C@H](CC(C)C)NC(=O)[C@H](CCCCN)NC(=O)[C@H](CC(C)C)NC(=O)[C@H](C)NC(=O)[C@H](CCCCN)NC(=O)[C@H](CCCCN)NC(=O)[C@H](CO)NC(=O)[C@H](CC(C)C)NC(=O)[C@H](CCCCN)NC(=O)[C@H](CC(C)C)NC(=O)[C@H](Cc1ccc2ccccc2c1)NC(=O)[C@H](CCCCN)NC(=O)[C@H](CCCCN)NC(=O)[C@H](CC(C)C)NC(=O)[C@H](CC(C)C)NC(=O)[C@H](CCCCN)NC(=O)[C@@H](N)CCCCN)C(N)=O [E1AM2 W72Nal V8L Q19L C-2-NH2] (H-KKLLKK[2Nal]LKLSKKALKLAL-NH2),1.56,1.56,1.56,1.56,reduced minimum bactericidal concentration (MBC),reduced minimum inhibitory concentration (MIC),–,–,–
"KVNQIGSVTESIQACKLAQSN [E1A, reference compound]",–,–,–,–,–,–,Non-cationic (cannot disrupt,Unknown/non-membrane,Does not achieve >99%

# Reference: US20260327263A1, “Anti-Bacterial Peptides” (priority 2023, published 2026)
